According to US20120181173A1, “ELECT[…] FOR THE DETECTION OF ANALYTES IN LIQUID MEDIA” (priority 2009, published 2012):
Several values for one entry are separate records, joined by “and”; a condition that tells them apart may be missing. Equal entries are not always repeated.

Columns and labels:
[1] = target: T1, acetylcholinesterase enzyme (Electrophorus electricus, UniProt O42275); assay: Inhibition of acetylcholinesterase by chlorpyrifos oxon in the Example 2 sensor (graphite; PEDOT and PVA conductive gel, d2); details: Example 2 sensor (d2), 100 mV
T1 sequence (O42275 24-633): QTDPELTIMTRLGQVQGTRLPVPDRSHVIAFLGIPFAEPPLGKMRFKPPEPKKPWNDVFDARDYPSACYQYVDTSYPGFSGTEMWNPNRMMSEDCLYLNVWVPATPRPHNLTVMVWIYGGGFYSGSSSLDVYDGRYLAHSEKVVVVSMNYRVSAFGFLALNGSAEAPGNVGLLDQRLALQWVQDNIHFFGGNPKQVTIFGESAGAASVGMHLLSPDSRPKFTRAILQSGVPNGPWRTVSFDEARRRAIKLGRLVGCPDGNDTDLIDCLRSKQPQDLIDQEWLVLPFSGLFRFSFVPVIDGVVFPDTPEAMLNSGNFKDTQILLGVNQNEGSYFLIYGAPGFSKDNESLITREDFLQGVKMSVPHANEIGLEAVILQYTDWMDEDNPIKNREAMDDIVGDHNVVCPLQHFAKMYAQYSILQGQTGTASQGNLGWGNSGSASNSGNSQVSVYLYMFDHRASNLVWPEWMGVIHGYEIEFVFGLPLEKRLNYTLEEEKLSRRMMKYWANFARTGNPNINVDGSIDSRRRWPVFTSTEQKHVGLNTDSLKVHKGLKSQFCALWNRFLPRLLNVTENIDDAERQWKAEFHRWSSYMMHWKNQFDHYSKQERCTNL

[2] = target: T1, acetylcholinesterase enzyme; assay: Inhibition of acetylcholinesterase by chlorpyrifos oxon in the Example 3 sensor (graphite; cobalt phthalocyanine intermediate layer; PEDOT and PVA, d2); details: Example 3 sensor (CoPh + d2), 100 mV
[3] = target: T1, acetylcholinesterase enzyme; assay: Inhibition of acetylcholinesterase by chlorpyrifos oxon in the Example 1 sensor (graphite; PEDOT layer with PVA layer, d1); details: Example 1 sensor (d1), 100 mV
[4] = target: T1, acetylcholinesterase enzyme; assay: Inhibition of acetylcholinesterase by chlorpyrifos oxon in the Example 4 sensor (silver intermediate layer; graphite; PEDOT layer with PVA layer, d1); details: Example 4 sensor (silver + d1), 100 mV

chlorpyrifos oxon
% of inhibition in the presence of pesticide ([1]; chlorpyrifos oxon 1 · 10^−9 M): 41.71%
% of inhibition in the presence of pesticide ([1]; chlorpyrifos oxon 3 · 10^−9 M): 61.15%
% of inhibition in the presence of pesticide ([1]; chlorpyrifos oxon 3 · 10^−10 M): 10% and 10.09%
% of inhibition in the presence of pesticide ([1]; chlorpyrifos oxon 4 · 10^−10 M): 15.31%
% of inhibition in the presence of pesticide ([1]; chlorpyrifos oxon 5 · 10^−10 M): 22.19%
% of inhibition in the presence of pesticide ([1]; chlorpyrifos oxon 9 · 10^−10 M): 39.75%
% of inhibition in the presence of pesticide ([2]; chlorpyrifos oxon 1 · 10^−9 M): 52.36%
% of inhibition in the presence of pesticide ([2]; chlorpyrifos oxon 2 · 10^−10 M): 9.82%
% of inhibition in the presence of pesticide ([2]; chlorpyrifos oxon 3 · 10^−9 M): 74.80%
% of inhibition in the presence of pesticide ([2]; chlorpyrifos oxon 3 · 10^−10 M): 10.70%
% of inhibition in the presence of pesticide ([2]; chlorpyrifos oxon 4 · 10^−10 M): 32.51%
% of inhibition in the presence of pesticide ([2]; chlorpyrifos oxon 5 · 10^−10 M): 31.46%
% of inhibition in the presence of pesticide ([2]; chlorpyrifos oxon 9 · 10^−10 M): 49.18%
% of inhibition in the presence of pesticide ([3]; chlorpyrifos oxon 1 · 10^−9 M): 46.82%
% of inhibition in the presence of pesticide ([3]; chlorpyrifos oxon 2 · 10^−10 M): 7% and 7.21%
% of inhibition in the presence of pesticide ([3]; chlorpyrifos oxon 3 · 10^−9 M): 69.20%
% of inhibition in the presence of pesticide ([3]; chlorpyrifos oxon 3 · 10^−10 M): 16.11%
% of inhibition in the presence of pesticide ([3]; chlorpyrifos oxon 4 · 10^−10 M): 22.41%
% of inhibition in the presence of pesticide ([3]; chlorpyrifos oxon 5 · 10^−10 M): 27.09%
% of inhibition in the presence of pesticide ([3]; chlorpyrifos oxon 9 · 10^−10 M): 44.54%
% of inhibition in the presence of pesticide ([4]; chlorpyrifos oxon 1 · 10^−9 M): 49.50%
% of inhibition in the presence of pesticide ([4]; chlorpyrifos oxon 2 · 10^−10 M): 8% and 8.28%
% of inhibition in the presence of pesticide ([4]; chlorpyrifos oxon 3 · 10^−9 M): 72.23%
% of inhibition in the presence of pesticide ([4]; chlorpyrifos oxon 3 · 10^−10 M): 19.14%
% of inhibition in the presence of pesticide ([4]; chlorpyrifos oxon 4 · 10^−10 M): 24.51%
% of inhibition in the presence of pesticide ([4]; chlorpyrifos oxon 5 · 10^−10 M): 30.10%
% of inhibition in the presence of pesticide ([4]; chlorpyrifos oxon 9 · 10^−10 M): 47.55%
